ChEMBL document CHEMBL2046371, “Synthesis and study of cyclic pronucleotides of 5-fluoro-2'-deoxyuridine” (Bioorg Med Chem Lett, 2012)

What was measured:
[1] = test system: A2780; test: Cytotoxicity against human A2780 cells after 5 days by MTT assay; type: functional, cell-based; details: A2780, 120 h
[2] = Cytotoxicity against thymidine kinase-deficient mouse LMTK cells after 5 days by MTT assay; type: cell-based; details: L-M(TK-), 120 h

| SMILES | IC50 [1] [µM] | IC50 [2] [µM] |
| --- | --- | --- |
| COC(=O)[C@H](C)N[P@]1(=O)OC[C@H]2O[C@@H](n3cc(F)c(=O)[nH]c3=O)C[C@@H]2O1 | 1.4 | 60.7 |
| COC(=O)[C@H](C)N[P@@]1(=O)OC[C@H]2O[C@@H](n3cc(F)c(=O)[nH]c3=O)C[C@@H]2O1 | 1.4 | 12.7 |
| O=c1[nH]c(=O)n([C@H]2C[C@H](O)[C@@H](CO)O2)cc1F [FLOXURIDINE] | 0.026 | 4.5 |
| COC(=O)[C@H](C)NP(=O)(OC[C@H]1O[C@@H](n2cc(F)c(=O)[nH]c2=O)C[C@@H]1O)Oc1ccccc1 (stereo not given in full) | 2.4 | 45.6 |
| COC(=O)CNP1(=O)OC[C@H]2O[C@@H](n3cc(F)c(=O)[nH]c3=O)C[C@@H]2O1 (stereo not given in full) | 0.55 | 141 |
